In patent US10196359B2, “2-alkyloxy benzene formyl arylamine compound and pharmaceutical use thereof” (FUDAN UNIVERSITY, priority 2014, dated 2019):

Columns and labels:
SMS = details: reference value; read-out: IC50 (SMS inhibitory activity); cited from earlier work
[1] = target: T1, Sphingomyelin Synthase 2 (SMS2) (Homo sapiens, UniProt Q8NHU3); test: In vitro inhibition of sphingomyelin synthase 2, HPLC fluorogenic quantitative detecting method (C6-NBD-ceramide to C6-NBD-SM, SMS2 high-expressed insect cell homogenate); assay type: biochemical; details: for inhibition at 10 µM: read-out: inhibition rate; for IC50: five concentrations, three parallel groups, experimental value, read-out: SMS2 Median Inhibitory Concentration IC50
T1 construct: made in house; used as homogenate
T1 sequence (Q8NHU3 1-365): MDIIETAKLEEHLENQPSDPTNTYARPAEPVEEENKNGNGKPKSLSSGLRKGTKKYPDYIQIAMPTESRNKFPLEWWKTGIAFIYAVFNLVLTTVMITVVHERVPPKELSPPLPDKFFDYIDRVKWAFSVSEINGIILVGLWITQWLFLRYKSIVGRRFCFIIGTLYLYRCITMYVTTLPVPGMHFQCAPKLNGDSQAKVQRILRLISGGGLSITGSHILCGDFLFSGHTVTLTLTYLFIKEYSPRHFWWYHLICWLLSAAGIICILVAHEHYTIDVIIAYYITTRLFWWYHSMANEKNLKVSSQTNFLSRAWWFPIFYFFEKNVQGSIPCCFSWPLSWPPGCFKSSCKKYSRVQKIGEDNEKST
From the text: The second aim of the present invention is to show the use of 2-alkoxy benzene formyl arylamines in preparing SMS small-molecule inhibitors. This invention evaluate SMS inhibitory activity of 2-alkoxy benzene formyl arylamines as scheme I through HPLC fluorogenic quantitative detecting method reported (Xiaodong Deng; Hong Sun; et al. Analytical Letters, 2012, 45:12, 1581-1589), which can make it possible to calculate the catalytic activity difference of SMS treated with inhibitors or not through content changes of NBD-ceramide and NBD-sphingomyelin.
9. The organic solvents were purchased from Shanghai Sinopharm Reagent Company; methanol is of HPLC grade; water is ultrapure water filtrated by Milli-Q pump and deionized and ultrafiltrated by 0.22 μm ultrafiltration membrane. Other biological supplies are purchased in domestic companies. 10. Preparation of SMS homogenate extraction buffer (Buffer1): (50 mM Tris hydrochloride, pH 7.4, 5% anhydrous sucrose, 1 mM ethylenediaminetetraacetic acid) 1.2114 g tris(hydroxymethyl)aminomethane hydrochloride (Tris-HCl) was dissolved in 100 ml distilled water. Then 84 ml 0.1 mol/L hydrochloric acid was added. Constant volume to 200 ml. Finally, 10 g sucrose and 58.45 mg EDTA were dissolved in the mixture. 11. Preparation of SMS test buffer […]: (100 mM Hepes, 30 mM MnCl2, 3% fatty acid free BSA): 1.1916 g 4-(2-hydroxyethyl)-1-peperazineethanesulfonic acid (Hepes), 0.2969 g MnCl2.4H2O and 0.3 g fatty acid free bovine serum albumin were dissolved in distilled water then constant volume to 50 ml. 12. Preparation of under tested compound solution: To each accurate weighed compound for 1˜2 mg, an appropriate amount of DMSO was added to formulate a stock solution of 6 mM precisely. To a certain volume of the DMSO stock solution of the test compound, the appropriate volume of DMSO was added to dilute the solution to the desired concentration. 13. SMS2 high-expressed insect cell homogenate was prepared by Xu Yanhui group from Institutes of Biomedical Sciences, Fudan University. Part 1 Activity Assay for Inhibition of 2-Alkoxy-Benzoyl Aromatic Amines to Sphingomyelin Synthase 2
250 μL tri-distilled water, 30 μL Buffer2, 4 μL SMS2 high-expressed insect cell homogenate (total protein content is 0.5 μg/μL) and 10 μL DMSO or DMSO solution of under tested compound were added to 1.5 mL eppendorf tube, vortex mixed for 30 seconds and then incubated in a 37° C. water bath for 0.5 h. 3 μL ethanol solution of DMPC (40 mM) and 3 μL ethanol solution of C6-NBD-Ceramide (1.16 mM) were added, vortex mixed for 30 seconds, and then incubate in a 37° C. water bath for 2.0 hours. To it 600 μL anhydrous ethanol was added vortex mixed for 1 minute and centrifuged 10 minutes in 10000 rpm and 600 μL supernatant was taken out and stored at 4° C. for HPLC analysis.
Using the same HPLC fluorogenic quantitative detecting method as reference (Xiaodong Deng; Hong Sun; et al. Analytical Letters, 2012, 45:12, 1581-1589) to analysize samples obtained above. Analysize and record peak areas of C6-NBD-SM (Asm) and C6-NBD-Ceramide (Acer) of each sample from blank group, positive control group (compound D2) and under tested compound group. The data were parallelly determined for 3 times. Calculate inhibition rate from the formula below: […]
The DMSO stock solution of under tested compound (6 mM) was diluted stepwise into five concentration gradient. 10 μL solution of each concentration was added into the trial system to prepare samples with the method mentioned in the first step of application case 12. The Asm values of the five concentration solution of tested compound were measured, and the inhibition rate under the five concentration were calculated and fitted to obtain median inhibitory concentration (IC50). Each compound was measured three parallel groups. SMS2 median inhibitory concentration of Scheme I-1˜I-60 are listed below in Table 1: […]

SMILES	IC50 (SMS) [µM]	melting point [°C]	inhibition at 10 µM [1] [%]	IC50 [1] [µM]
S=C(S)OC1CC2CC1C1CCCC21 (centres unmarked) [Scheme D609]	375	–	–	–
O=C(Nc1cccnc1)c1ccccc1OCc1cccc2ccccc12 [Scheme I-45, 2-((naphthalen-1-yl)methoxy)-N-(pyridin-3-yl) benzamide]	–	91.4 to 93.9	78	2.6
O=C(Nc1cncnc1)c1ccccc1OCc1ccccc1 [Scheme I-53, 2-benzyloxy-N-(pyrimidin-5-yl) benzamide]	–	112.3 to 114.9	38.4	> 25
O=C(Nc1cccnc1)c1ccc(Br)cc1OCc1ccccc1Cl [Scheme I-58, 4-bromo-2-(2-chloro-benzyloxy)-N-(pyridin-3-yl) benzamide]	–	–	19.4	> 50
COc1ccc(OCc2ccccc2Cl)c(C(=O)Nc2cccnc2)c1 [Scheme I-59, 2-(2-chloro-benzyloxy)-5-methoxy-N-(pyridin-3-yl) benzamide]	–	–	7.2	> 100
COc1ccc(C(=O)Nc2cccnc2)c(OCc2ccccc2Cl)c1 [Scheme I-60, 2-(2-chloro-benzyloxy)-4-methoxy-N-(pyridin-3-yl) benzamide]	–	129.2 to 131.9	13.3	> 50
